Laboratory results published in patent US7335770B2, “Triazine compounds and their analogs, compositions, and methods” (Reddy U5 Therapeutics, Inc., priority 2004, dated 2008).
Structures can show the parent of a compound that is named as a salt.

Legend:
[1] = system: smooth muscle cells (SMC); test: anti-proliferation assay (perlecan); assay type: cell-based; conditions: using the same activity scale used in Table 3
In short: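 Compounds are added to smooth muscle cells in growth or serum-free medium. The change in proliferation is measured, e.g. by labelled-nucleotide incorporation into DNA, against untreated cells; IC50 values are given as activity bins.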

IL6 = test: inhibition of TNF-induced IL6 production; assay type: cell-based; conditions: for IC50: given as '50% at x μM', read-out: Inhibition of TNF-induced IL6 production: concentration giving 50% inhibition
VCAM1 = test: inhibition of TNF-induced VCAM1; assay type: cell-based; conditions: for IC50: in vitro
Procedure: (§1) The activity of the compounds of the present invention in inhibiting glycated protein- and AGE-induced inflammation can be determined using the assays described herein and in U.S. patent application Ser. No. 10/026,335, which is herein incorporated in its entirety. Such assays comprise measurement of the specific activity of biological components involved in a known cellular response. The assays provide a measurable response in which the activity of the compounds is determined. One assay comprises measurement of the effects of compounds on an inflammatory response by cells to the presence of a stimulating agent. Yet another assay comprises endothelial cells that are stimulated by the addition of a glycated protein, the stimulating agent. The endothelial cells respond by producing specific cytokines. The amount of cytokines produced are determined by measurement protocols known to those skilled in the art. The compounds of the present invention are then added to the assay and the production of cytokines is measured. From the comparison of the assay without the compound with the assay with the compound, the biological effect of the compound can be determined. The compound may have an inhibitory effect, a stimulatory effect, or no effect at all.
An aspect of the present invention comprises methods and compositions for the treatment of diseases, preconditions or pathologies associated with inflammatory cytokines and other inflammation related molecules including, but not limited to IL-6, VCAM-1, AGE-induced MCP-1, (monocyte chemoattractant protein 1), heme oxygenase, insulin-like growth factor, selectins, IP-10, MIG and I-TAC, NF-κB, IL-1β (interleukin 1β), IL-11 (interleukin 11), m-CSF (macrophage colony stimulating factor), fibrinogen, TNF-α (tumor necrosis factor α), adhesion molecules, selecting, VCAM-1 (Vascular Cell Adhesion Molecule-1), CRP (C-reactive protein), and PAI-1 (plasminogen activator inhibitor-1). Examples of such diseases include the pathogenesis of atherosclerosis and the development of diabetic vasculopathy in type II diabetes. For example, affecting the activity or level of TNFα is a key mediator of tissue damage following acute or chronic inflammatory reactions. The present invention contemplates providing compositions and methods that modulate the effects of cytokines and inflammatory molecules such as TNFα, IL-6, VCAM-1, IP-10, MIG, I-TAC and AGE-induced MCP-1, and treat the associated diseases, acute or chronic conditions, preconditions and pathologies.
(§2) Assays for determining the activity of compounds capable of modulating inflammation include those taught in U.S. patent application Ser. No. 10/026,335 and 09/969,013, which are both expressly incorporated by reference. In general, once the baseline response to the stimulating agent for the production of cytokines by the endothelial cells is established, thus comprising the control levels for the screening assay, the methods comprise addition of compounds of the present invention. The effect of the compound on the baseline response is determined by comparing the amount of cytokine produced in the presence of the stimulating agent and the amount of cytokine produced in the presence of the stimulating agent and the compound of the present invention. In a preferred method, compounds that have inhibitory effects on the inflammation of the cells in the presence of glycated albumin are then used as therapeutic agents. One or more compounds may be added to the screening assay. Combinations or mixtures of compounds can be added. Different amounts and formulations of the compounds are added to determine the effects on the screening assay. The screening assay may also be used to determine stimulatory compounds or compounds that have no effects in the assay.

MCP1 = test: inhibition of TNF-induced MCP1; assay type: cell-based; conditions: for IC50: in vitro
Procedure: as §1
The amount and type of cytokine produced can be determined using immunological methods, such as ELISA assays. The methods of the present invention are not limited by the type of assay used to measure the amount of cytokine produced, and any methods known to those skilled in the art and later developed can be used to measure the amount of cytokines produced in response to the stimulating agent and to the compound having unknown activity.
as §2

Row | SMILES | IC50 (VCAM1) [µM] | IC50 (MCP1) [µM] | IC50 (IL6) [µM] | further results
1 | COc1ccc(Oc2nc(Oc3ccc(OC)c(F)c3)nc(Oc3ccc(OC)c(F)c3)n2)cc1F [2,4,6-Tris-(3-fluoro-4-methoxy-phenoxy)-[1,3,5]triazine] | – | – | – | activity in anti-proliferation assay (Perlecan), in words [1]: high activity; melting point: > 210 °C
2 | CCN1CCCC1CNc1nc(Nc2ccc(C)c(F)c2)nc(NC2CCCCCC2)n1 (centres unmarked) [Example 32, N-Cycloheptyl-N′-(1-ethyl-pyrrolidin-2-ylmethyl)-N″-(3-fluoro-4-methyl-phenyl)-[1,3,5]triazine-2,4,6-triamine] | – | – | – | melting point: 78 °C
3 | COc1ccc(Nc2nc(NCC3CCCO3)nc(NC3CCCCCC3)n2)cc1Cl (centres unmarked) [Example 37, N-(3-Chloro-4-methoxy-phenyl)-N′-cycloheptyl-N″-(tetrahydro-furan-2-ylmethyl)-[1,3,5]triazine-2,4,6-triamine] | – | – | – | melting point: 77 °C
4 | COc1ccc(Nc2nc(NCCNC(=O)OC(C)(C)C)nc(NC3CCCCCC3)n2)cc1Cl [Example 39, {2-[4-(3-Chloro-4-methoxy-phenylamino)-6-cycloheptylamino-[1,3,5]triazin-2-ylamino]-ethyl}-carbamic acid tert-butyl ester] | – | – | – | melting point: 94 °C
5 | COc1ccc(Nc2nc(NCCN)nc(NC3CCCCCC3)n2)cc1Cl [Example 40, N-(2-Amino-ethyl)-N′-(3-chloro-4-methoxy-phenyl)-N″-cycloheptyl-[1,3,5]triazine-2,4,6-triamine] | – | – | – | melting point: 77 °C
6 | COc1ccc(Nc2nc(NCCNC(=O)OC(C)(C)C)nc(NC3CCCCCC3)n2)cc1Cl [drawing 602, {2-[4-(3-Chloro-4-meth-oxy-phenylamino)-6-cyclo-heptylamino-[1,3,5]triazin-2-ylamino]-eth-yl}-carbamic acid tert-butyl ester] | – | – | 15 | –
7 | COc1ccc(Nc2nc(NCCN)nc(NC3CCCCCC3)n2)cc1Cl [drawing 603, N-(2-Amino-eth-yl)-N′-(3-chloro-4-methoxy-phe-nyl)-N″-cycloheptyl-[1,3,5]triazine-2,4,6-tri-amine] | – | – | 2.7 | –
8 | CCN1CCCC1CNc1nc(Nc2ccc(C)c(F)c2)nc(NC2CCCCCC2)n1 (centres unmarked) [drawing 604, N-Cycloheptyl-N′-(1-ethyl-pyrrolidin-2-yl-methyl)-N″-(3-fluoro-4-meth-yl-phenyl)-[1,3,5]tri-azine-2,4,6-triamine] | – | – | 3.3 | –
9 | Cc1ccc(Nc2nc(NC3CCCCCC3)nc(N(C)C3CCN(C)CC3)n2)cc1F [drawing 605, N-Cycloheptyl--N′-(3-fluoro-4-methyl-phenyl)-N″-meth-yl-N″-(1-methyl-piperidin-4-yl)-[1,3,5]tri-azine-2,4,6-triamine] | – | – | 3.6 | –
10 | CN1CCC(N(C)c2nc(Nc3cccc([N+](=O)[O-])c3)nc(NC3CCCCCC3)n2)CC1 [drawing 606, N-Cycloheptyl-N′-methyl-N′-(1-methyl-piper-idin-4-yl)-N″-(3-nitro-phenyl)-[1,3,5]tri-azine-2,4,6-triamine] | – | – | 3.3 | –
11 | CCN1CCCC1CNc1nc(Nc2ccc(OCc3ccccc3)c(Cl)c2)nc(NC2CCCCCC2)n1 (centres unmarked) [drawing 607, N-(4-Benzyloxy-3-chloro-phenyl)-N′-cyclo-heptyl-N″-(1-ethyl-pyrrolidin-2-yl-methyl)-[1,3,5]triazine-2,4,6-triamine] | – | – | 1.1 | –
12 | COc1ccc(Oc2nc(Oc3ccc(OC)c(F)c3)nc(Oc3ccc(OC)c(F)c3)n2)cc1F [drawing 608, 2,4,6-Tris-(3-fluoro-4-meth-oxy-phenoxy)-[1,3,5]triazine] | – | – | – | inhibition at 10 µM (IL6): 5%
13 | COc1ccc(Nc2nc(NCCCCCNC(=O)CCCCC3SCC4NC(=O)NC43)nc(NC3CCCCCC3)n2)cc1Cl (centres unmarked) [drawing 609, 5-(2-Oxo-hexahydro-thieno[3,4-d]imi-dazol-4-yl)-pentanoicacid {5-[4-(3-chloro-4-methoxy-phenylamino)-6-cycloheptylamino-[1,3,5]tri-azin-2-ylamino]-pentyl}-amide] | – | – | 5 | –
14 | COc1ccc(Nc2nc(NC3CCCCCC3)nc(NC3CCN(C(=O)CCCCC4SCC5NC(=O)NC54)CC3)n2)cc1Cl (centres unmarked) [drawing 610] | – | – | 19 | –
15 | CN1CCC(N(C)c2nc(Nc3cccc(F)c3)nc(NC3CCCCCC3)n2)CC1 [drawing 612, N-Cyclo-heptyl-N′-(3-fluoro-phenyl)-N″-meth-yl-N″-(1-methyl-piperidin-4-yl)-[1,3,5]tri-azine-2,4,6-triamine] | – | – | 3.2 | –
16 | CCN1CCCC1CNc1nc(Nc2ccc(OC)c(F)c2)nc(N2CCN(CC(=O)N3CCCC3)CC2)n1 (centres unmarked) [drawing 613, 2-{4-[4-[(1-Ethyl-pyrrolidin-2-ylmethyl)-amino]-6-(3-fluoro-4-meth-oxy-phenylamino)-[1,3,5tri-azin-2-yl]-pipera-zin-1-yl}-1-pyrrolidin-1-yl-eth-anone dihydrogen chloride salt] | – | – | – | inhibition at 10 µM (IL6): 42%
17 | COc1ccc(Nc2nc(NC3CCCCCC3)nc(Oc3ccc(C#CC(C)(C)O)cc3)n2)cc1Cl [drawing 620] | 7 | 3.7 | – | –
18 | COc1ccc(Nc2nc(NC3CCCCCC3)nc(Oc3ccccc3C#CC(C)(C)O)n2)cc1Cl [drawing 621] | 7 | 6.5 | – | –
19 | COc1ccc(Nc2nc(NC(C)C)nc(Oc3ccc(C#CC(C)(C)O)cc3)n2)cc1Cl [drawing 627] | 5.7 | 3 | – | –
20 | COc1ccc(Nc2nc(NC3CCCCCC3)nc(Sc3c(Cl)cccc3Cl)n2)cc1Cl [drawing 631] | – | – | – | inhibition at 10 µM (VCAM1; @ 10 uM concentration, read-out: TNF-induced VCAM1, In-vitro % of inhibition): 6%; inhibition at 10 µM (MCP1; @ 10 uM concentration, read-out: TNF-induced MCP1, In-vitro % of inhibition): 11%

Now from value to molecule, other results behind:

Row | IC50 (VCAM1) [µM] | IC50 (MCP1) [µM] | SMILES | IC50 (IL6) [µM] | further results
21 | 2.5 | 3 | COc1ccc(Nc2nc(NC3CCCCCC3)nc(OCC3CCCN3C)n2)cc1Cl (centres unmarked) [drawing 614] | – | –
22 | 4.5 | 4.3 | COc1ccc(Nc2nc(NC3CCCCCC3)nc(OC3CCN(C)CC3)n2)cc1Cl [drawing 615] | – | –
23 | 5.2 | 4.6 | COc1ccc(Nc2nc(NC3CCCCCC3)nc(OC3CCCN(C(C)=O)C3)n2)cc1Cl (centres unmarked) [drawing 617] | – | –
24 | 6 | 4.2 | CCN1CCCC(Oc2nc(Nc3ccc(OC)c(Cl)c3)nc(NC3CCCCCC3)n2)C1 (centres unmarked) [drawing 622] | – | –
25 | 5.2 | 6 | COc1ccc(Nc2nc(NC3CCCCCC3)nc(Oc3ccc(C=O)cc3)n2)cc1Cl [drawing 623] | – | –
